# Earlier results as cited in patent publication US20110008495A1, “LIQUID DIETARY SUPPLEMENT COMPOSITION” (NAWGAN PRODUCTS, LLC, priority 2009, published 2011).
# Assays:
# [1] = system: individuals diagnosed with mild to moderate Alzheimer's disease
# [2] = midlife caffeine consumption
# diabetic animals = settings: long-term consumption in distilled water
smiles,measurement,setting,value
"C[N+](C)(C)CCOP(=O)([O-])OC[C@H](O)CO [A-GPC, α-glyceryl phosphoryl choline]",absolute magnitude of change in overall cognitive ability (Mini Mental State Exam),[1]; A-GPC over a 6 month period,offset a full year of typical decline
same,verbal memory and overall cognitive ability,"[1]; A-GPC over a 6 month period vs patients not given A-GPC, 126 individuals",significant improvements
Cn1c(=O)c2c(ncn2C)n(C)c1=O [caffeine],risk of dementia later in life,[2],significantly reduces
CC(C)=CCC/C(C)=C/C=C/C(C)=C/C=C/C(C)=C/C=C/C=C(C)/C=C/C=C(C)/C=C/C=C(\C)CCC=C(C)C [lycopene],markers of inflammation and oxidation,diabetic animals,significantly decreased
same,memory performance,diabetic animals,significantly improved
